Laboratory results as given in patent publication US20160022751A1, “NOVEL COMPOSITION FOR TREATING ALZHEIMER'S DISEASE AND IMPROVING COGNITIVE FUNCTION OF ALZHEIMER'S PATIENTS” (GANGNEUNG-WONJU NATIONAL UNIVERSITY INDUSTRY ACADEMY …, priority 2014, published 2016).

Experiments:
ERK = ERK phosphorylation in HMO6 cells (western blot); assay type: cell-based, human; conditions: Rg3 5 μg/ml, western blot (FIG. 18)
Description: FIG. 18 is a photograph showing a result of western blot analysis for confirming the degree of phosphorylation of ERK (extracellular-regulated kinase) and p38, according to an embodiment of the present invention. Depending on the presence of Rg3, the levels of phospho-ERK and phospho-p38 protein were investigated by immune-blotting. HMO6 cells were treated with Rg3 (5 μg/ml) after plated on 60 mm cell culture plates and western blot analysis was performed after the cells were placed in phenol red negative/sere-free DMEM medium for 1 h. The western blot analysis was carried out three times independently.
HMO6 cells were lysed in 1% RIPA buffer containing protease and phosphatase inhibitors (Roche, Mannheim, Germany) and whole-cell lysates were separated on 10% sodium dodecyl sulfate-polyacrylamide gel electrophoresis. After electrophoresis, the proteins were transferred to polyvinylidene fluoride membranes, and the membranes were blocked with 5% skim milk in Tris-buffered saline solution containing 0.1% Tween-20. The membranes were then immunoblotted with primary antibodies, anti-phospho-p38, anti-p38, anti-phospho-ERK, anti-ERK, and anti-f3-actin (Santa Cruz Biotechnology, USA), followed by incubation with horseradish peroxidase-conjugated anti-rabbit or anti-mouse secondary antibodies (Stressgen, USA). Blots were developed using an enhanced chemiluminescent solution (Thermo, USA).

clathrin = test: Clathrin immunocytochemistry in HMO6 cells; assay type: cell-based, human; conditions: Rg3 5 μg/ml, 24 h, immunocytochemistry (FIG. 20)
Description: FIG. 20 is a fluorescence microscopic image showing a result of immunocytochemical analysis investigating the expression of caveolin and clathrin in HMO6 cells treated with or without Rg3. HMO6 cells were treated with Rg3 (5 μg/ml) for 24 h after plated on chamber slides and then the cells were stained with primary antibodies binding specifically to caveolin and clathrin, respectively and counterstained with DAPI. The length of scale bar represents 10 μm.
The present inventors investigated whether ginsenosides can induce the expression of SRA, clathrin, caveolin 1, NEP or IDE and the differentiation of neurons actually through immunocytochemical analysis (ICC) and microscopic observations. Specifically, Cultured HMO6 cells were fixed in 4% paraformaldehyde (in 1×PBS) for 15 min, washed twice with 1×PBS supplemented with 100 mM glycine for 5 min, and incubated with permeabilization buffer consisting of 0.1% Triton X-100 (Sigma-Aldrich, USA) in 1×PBS for 30 min at room temperature. Blocking was performed with 1% bovine serum albumin (BSA, Sigma-Aldrich, USA) for 30 min at room temperature. Then, SRA, clathrin, caveolin1, NEP, or IDE mouse monoclonal antibody (1:200; Santa Cruz Biotechnology, USA) was added to 1% BSA in PBS with Tween 20 (PBST) and incubated for 2 h at room temperature. […]

HMO6 cells = test: Uptake of FITC-labeled Aβ42 in HMO6 cells (live-cell imaging); assay type: cell-based, human; conditions: HMO6 cells pre-treated with Rg3 5 μg/ml for 20 h, after 30 min, persisted for 6 h (FIG. 21)
Description: The stably transfected HM06.hSRA cells prepared in Example 5-5 were plated into 96-well plates at 5000 cells/well to analyze Aβ uptake. […] […] Fluorescence intensities represented the number of cells (count/mm^2) over the time to quantify cells with FITC-labeled Aβ42 peptides. Aβ42 uptake was calculated using the following equation (FIG. 21):

Aβ42 = test: Morris water maze test in Aβ42-infused animals; assay type: in vivo; conditions: Aβ42 rats administered Rg3 (FIG. 25)
Description: Male BALB/c mice (10 weeks old) were purchased from Samtaco (Korea), and were adapted to laboratory conditions (temperature: 20±2° C., relative humidity: 50%, light/dark cycle: 12 h) for 1 week. Five-week-old male Sprague-Dawley rats were obtained from Daehan-Biolink (Korea) for learning and memory testing. The animals (n=5/group) were maintained at a constant temperature (23±2° C.), relative humidity, 55±10%, and 12-h light/dark cycle. The animals were fed a standard rodent chow and purified water ad libitum. Lyophilized Aβ42 (0.5 mg, Bachem Torrance, USA) was resuspended in PBS (pH 7.4) by shaking for 7 days at room temperature to prepare the fibrillar-aggregated Aβ42 (fAβ42). At 10 weeks of age, mice were anesthetized, and 1 μl fAβ42 (350 μM stock concentration) was stereotaxically injected unilaterally into the parietal cortex (anterior 1.7 mm, lateral 1 mm, and ventral 1 mm to the bregma above the hippocampus within 1 min) (Mohajeri et al., J. Biol. Chem., 277: 35460-35465, 2002)
The present inventor performed learning and memory tests using rats in order to investigate whether Rg3 can ameliorate symptoms of Alzheimer's model animals in deed. […] The latency time of stay in the light room from lights-on was recorded following an electric shock (1 mA for 2 s) in the dark compartment. […] The mean time spent to escape onto the platform was recorded.

For `CC(C)=CCC[C@](C)(O)[C@H]1CC[C@]2(C)[C@@H]1[C@H](O)C[C@@H]1[C@@]3(C)CC[C@H](O[C@@H]4O[C@H](CO)[C@@H](O)[C@H](O)[C@H]4O[C@@H]4O[C@H](CO)[C@@H](O)[C@H](O)[C@H]4O)C(C)(C)[C@@H]3CC[C@]12C` [ginsenoside Rg3], the “phosphorylation of ERK” value (ERK) was “promoted the phosphorylation”, the clathrin expression (clathrin) was “highly expressed” and the Aβ42 uptake (HMO6 cells) was “increased Aβ42 uptake significantly”. The “learning and memory functions, Morris water-maze” value (Aβ42) was “maintained learning and memory functions at 4-5 weeks”.
